How the values were obtained:
[1] = wn = mass fraction of the nth substance listed; settings: 298.15 K, 101 kPa, Liquid, Alternating current cell with electrodes
[2] = 298.15 K, Liquid; for electrical conductivity: 101 kPa, Alternating current cell with electrodes; for viscosity / mass density: 101.33 kPa; for viscosity: Cone and plate viscometry; for mass density: Pycnometric method

C1CC[NH2+]C1.CCCCCCC(=O)[O-] [pyrrolidinium heptanoate] + O
[1]
Settings	electrical conductivity [S/m]
w2 = 0	0.186
w2 = 0.0476	0.528
w2 = 0.0909	0.74
w2 = 0.1489	1.13
w2 = 0.2	1.41
w2 = 0.2593	1.8
w2 = 0.2857	1.97
w2 = 0.3103	2.12
w2 = 0.3333	2.22
w2 = 0.3548	2.31
w2 = 0.375	2.38
w2 = 0.3939	2.42
w2 = 0.403	2.44
w2 = 0.4203	2.47
w2 = 0.4444	2.53
w2 = 0.4595	2.56
w2 = 0.4872	2.59
w2 = 0.5	2.6
w2 = 0.5238	2.61
w2 = 0.5556	2.62
w2 = 0.608	2.47
w2 = 0.7011	2.12
w2 = 0.805	1.52
w2 = 0.905	0.728

C1CC[NH2+]C1.CCCCCC(=O)[O-] [pyrrolidinium hexanoate]
[2]
Settings	electrical conductivity [S/m]	mass density [kg/m3]	viscosity [mPa·s]
–	0.204	988	27.4

C1CC[NH2+]C1.CCCCCC(=O)[O-] [pyrrolidinium hexanoate] + O
[1]
Settings	electrical conductivity [S/m]
w2 = 0	0.204
w2 = 0.0476	0.568
w2 = 0.0909	0.95
w2 = 0.1489	1.54
w2 = 0.1667	1.73
w2 = 0.1837	1.91
w2 = 0.2	2.01
w2 = 0.2308	2.21
w2 = 0.2593	2.4
w2 = 0.2727	2.48
w2 = 0.2982	2.61
w2 = 0.3103	2.65
w2 = 0.3333	2.76
w2 = 0.3548	2.86
w2 = 0.3846	2.91
w2 = 0.403	2.91
w2 = 0.4521	2.92
w2 = 0.5	2.89
w2 = 0.5294	2.85
w2 = 0.5506	2.81
w2 = 0.601	2.53
w2 = 0.7015	1.96
w2 = 0.8004	1.21
w2 = 0.9002	0.551

C1CC[NH2+]C1.O=[N+]([O-])[O-] [pyrrolidinium nitrate]
[2]
Settings	electrical conductivity [S/m]	viscosity [mPa·s]
–	5.01	5.2

C1CC[NH2+]C1.O=[N+]([O-])[O-] [pyrrolidinium nitrate] + O
[1]
Settings	electrical conductivity [S/m]
w2 = 0	5.01
w2 = 0.0476	6.79
w2 = 0.0908	7.74
w2 = 0.1665	9.11
w2 = 0.1999	9.7
w2 = 0.2591	10.4
w2 = 0.3101	10.9
w2 = 0.3546	11.1
w2 = 0.3937	11.3
w2 = 0.4592	11.2
w2 = 0.4998	10.8
w2 = 0.5553	10.9
w2 = 0.5998	10.4
w2 = 0.655	9.97
w2 = 0.7013	9.42
w2 = 0.7999	7.86
w2 = 0.8504	6.1
w2 = 0.9074	4.5
w2 = 0.96	2.5
w2 = 0.9987	0.122

C1CC[NH2+]C1.CCCCCCCCC(=O)[O-] [pyrrolidinium nonanoate]
[2]
Settings	electrical conductivity [S/m]	mass density [kg/m3]	viscosity [mPa·s]
–	0.064	931.5	74.4

C1CC[NH2+]C1.CCCCCCCCC(=O)[O-] [pyrrolidinium nonanoate] + O
[1]
Settings	electrical conductivity [S/m]
w2 = 0	0.064
w2 = 0.0476	0.073
w2 = 0.0909	0.122
w2 = 0.1667	0.295
w2 = 0.2	0.392
w2 = 0.2593	0.579
w2 = 0.3103	0.754
w2 = 0.3548	0.915
w2 = 0.3939	1.07
w2 = 0.4595	1.29
w2 = 0.5	1.44
w2 = 0.5556	1.61
w2 = 0.5833	1.68
w2 = 0.6	1.73
w2 = 0.6154	1.76
w2 = 0.6296	1.79
w2 = 0.6429	1.81
w2 = 0.6552	1.84
w2 = 0.6667	1.85
w2 = 0.7143	1.87
w2 = 0.8065	1.63
w2 = 0.902	1.08

C1CC[NH2+]C1.CCCCCCCC(=O)[O-] [pyrrolidinium octanoate]
[2]
Settings	electrical conductivity [S/m]	mass density [kg/m3]	viscosity [mPa·s]
–	0.08	949.5	36.5

C1CC[NH2+]C1.CCCCCCCC(=O)[O-] [pyrrolidinium octanoate] + O
[1]
Settings	electrical conductivity [S/m]
w2 = 0	0.08
w2 = 0.0475	0.223
w2 = 0.0908	0.347
w2 = 0.1664	0.635
w2 = 0.1997	0.795
w2 = 0.2589	1.06
w2 = 0.31	1.31
w2 = 0.3544	1.58
w2 = 0.3935	1.7
w2 = 0.459	1.93
w2 = 0.4996	2.06
w2 = 0.5551	2.18
w2 = 0.5996	2.23
w2 = 0.6292	2.23
w2 = 0.6548	2.22
w2 = 0.7011	2.17
w2 = 0.7558	2.03
w2 = 0.7724	1.97
w2 = 0.8037	1.83
w2 = 0.8212	1.68

O=C[O-].c1ccc2[nH+]cccc2c1 [quinolinium formate]
[2]
Settings	electrical conductivity [S/m]	mass density [kg/m3]	viscosity [mPa·s]
–	0.415	1153	8.2

O=C[O-].c1ccc2[nH+]cccc2c1 [quinolinium formate] + O
[1]
Settings	electrical conductivity [S/m]
w2 = 0	0.415
w2 = 0.0566	0.621
w2 = 0.0909	0.854
w2 = 0.1667	1.38
w2 = 0.2	1.59
w2 = 0.2593	2.01
w2 = 0.3103	2.47
w2 = 0.3548	2.84
w2 = 0.3939	3.1
w2 = 0.4444	3.49
w2 = 0.4595	3.59
w2 = 0.5	3.81
w2 = 0.5652	4.11
w2 = 0.6	4.23
w2 = 0.6552	4.3
w2 = 0.7059	4.26
w2 = 0.75	4.12
w2 = 0.8	3.94
w2 = 0.8571	3.37
w2 = 0.9	2.75

O [water]
Settings	electrical conductivity [S/m]
[2]	0.0001

O [water] + C1CC[NH2+]C1.CC(=O)[O-]
Settings	electrical conductivity [S/m]
[1], w1 = 1	0.0001

O [water] + C1CC[NH2+]C1.CCCCCC(=O)[O-]
Settings	electrical conductivity [S/m]
[1], w1 = 1	0.0001

O [water] + C1CC[NH2+]C1.CCCCCCC(=O)[O-]
Settings	electrical conductivity [S/m]
[1], w1 = 1	0.0001

O [water] + C1CC[NH2+]C1.CCCCCCCC(=O)[O-]
Settings	electrical conductivity [S/m]
[1], w1 = 1	0.0001

O [water] + C1CC[NH2+]C1.CCCCCCCCC(=O)[O-]
Settings	electrical conductivity [S/m]
[1], w1 = 1	0.0001

O [water] + C1CC[NH2+]C1.O=C[O-]
Settings	electrical conductivity [S/m]
[1], w1 = 1	0.0001

O [water] + C1CC[NH2+]C1.O=[N+]([O-])[O-]
Settings	electrical conductivity [S/m]
[1], w1 = 1	0.0001

O [water] + CCCC(C)[NH3+].O=C[O-]
Settings	electrical conductivity [S/m]
[1], w1 = 1	0.0001

O [water] + CC[NH+](C(C)C)C(C)C.O=C[O-]
Settings	electrical conductivity [S/m]
[1], w1 = 1	0.0001

O [water] + Cc1ccc[n+](C)c1C.O=C[O-]
Settings	electrical conductivity [S/m]
[1], w1 = 1	0.0001

O [water] + Cc1cccc[n+]1C.O=C[O-]
Settings	electrical conductivity [S/m]
[1], w1 = 1	0.0001

O [water] + O=C[O-].c1ccc2[nH+]cccc2c1
Settings	electrical conductivity [S/m]
[1], w1 = 1	0.0001

Source: the NIST ThermoML archive (doi:10.1016/j.fluid.2010.05.019)
